In general, pEC50 refers to −log10 of the EC50, conventionally taken in molar units.

14 compounds from patent US20240132450A1, “MODULATORS OF G PROTEIN-COUPLED RECEPTOR 88” (ACADIA Pharmaceuticals Inc., priority 2020, published 2024) can be followed below.

pEC50: −log10 of the molar value.

The target in the test is hGPR88 receptor (Homo sapiens, UniProt Q9GZN0). Description: hGPR88-HEK cAMP accumulation assay. The note with it: GRP88 agonist activity (EC50), HEK-293 cells expressing human recombinant GPR88, forskolin 200 nM, High/Medium/Low bands. For orientation: Cyclic AMP is a second messenger, typically raised through Gs and lowered through Gi signalling.
Chain of hGPR88 receptor (Q9GZN0 whole entry): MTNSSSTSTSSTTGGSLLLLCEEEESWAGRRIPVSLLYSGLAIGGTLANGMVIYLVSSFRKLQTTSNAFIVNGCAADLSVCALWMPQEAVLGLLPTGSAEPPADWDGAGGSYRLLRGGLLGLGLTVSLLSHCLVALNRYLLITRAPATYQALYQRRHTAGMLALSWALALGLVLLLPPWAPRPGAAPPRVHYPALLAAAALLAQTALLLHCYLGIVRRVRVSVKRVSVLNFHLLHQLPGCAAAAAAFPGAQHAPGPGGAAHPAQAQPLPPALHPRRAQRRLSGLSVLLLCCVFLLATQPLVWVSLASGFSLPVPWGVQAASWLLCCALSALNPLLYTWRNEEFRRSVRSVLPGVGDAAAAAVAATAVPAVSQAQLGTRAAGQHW
With `COCc1ccc(-c2ccc(NC(=O)C(C)(C)Oc3ccc(OC)cc3)cc2)cc1` [Example 66, N-(4′-(methoxymethyl)-[1,1′-biphenyl]-4-yl)-2-(4-methoxyphenoxy)-2-methylpropanamide], the pEC50 is greater than 6.00. Turning to `COCc1ccc(-c2ccc(N(CCC#N)C(=O)C(C)(C)Oc3ccc(F)cc3)cc2)cc1` [Example 139, N-(2-cyanoethyl)-2-(4-fluorophenoxy)-N-(4′-(methoxymethyl)-[1,1′-biphenyl]-4-yl)-2-methylpropanamide], the pEC50 is less than 5.30. As for `COCc1ccc(-c2ccc(NC(=O)C3CC3c3ccc(F)cc3)cc2)cc1` (racemic) [Example 54, (rac-trans)-2-(4-fluorophenyl)-N-(4′-(methoxymethyl)-[1,1′-biphenyl]-4-yl)cyclopropane-1-carboxamide], the figure is less than 5.30; as for `COCc1ccc(-c2ccc(NC(=O)C(C)(C)Oc3cccc(C(F)(F)F)c3)cc2)cc1` [Example 100, N-(4′-(methoxymethyl)-[1,1′-biphenyl]-4-yl)-2-methyl-2-(3-(trifluoromethyl)phenoxy)propanamide], 5.30 to 6.00. As for `COCc1ccc(-c2ccc(N(CC(C)(C)O)C(=O)C(C)(C)Oc3ccc(F)cc3)cc2)cc1` [Example 39, 2-(4-fluorophenoxy)-N-(2-hydroxy-2-methylpropyl)-N-(4′-(methoxymethyl)-[1,1′-biphenyl]-4-yl)-2-methylpropanamide], the figure is 5.30 to 6.00. As for `CC(C)(Oc1ccc(F)cc1)C(=O)Nc1ccc(-c2cnc(C(F)(F)F)nc2)cc1` [Example 38, 2-(4-fluorophenoxy)-2-methyl-/-(4-(2-(trifluoromethyl)pyrimidin-5-yl)phenyl)propenamide], the figure is less than 5.30. For `COCc1ccc(-c2ccc(N(CC(C)C)C(=O)C(C)(C)Oc3ccc(F)cc3)cc2)cc1` [Example 23, 2-(4-fluorophenoxy)-N-isobutyl-N-(4′-(methoxymethyl)-[1,1′-biphenyl]-4-yl)-2-methylpropanamide], the pEC50 was less than 5.30. As for `CCCN(C(=O)C(C)(C)Oc1ccc(F)cc1)c1ccc(-c2ccc(C)cc2)cc1` [Example 20, 2-(4-fluorophenoxy)-2-methyl-N-(4′-methyl-[1,1′-biphenyl]-4-yl)-N-propylpropanamide], the negative logarithm of the EC50 (pEC50) was less than 5.30. For the compound `COCc1ccc(-c2ccc(NC(=O)C(C)(C)Oc3ccc(C(F)(F)F)cn3)cc2)cc1` [Example 71, N-(4′-(methoxymethyl)-[1,1′-biphenyl]-4-yl)-2-methyl-2-((5-(trifluoromethyl)pyridin-2-yl)oxy)propenamide], the negative logarithm of the EC50 (pEC50) was less than 5.30.

`CN(C)c1ncc(-c2ccc(NC(=O)C(C)(C)Oc3ccc(C#N)cc3)cc2)cn1` [Example 117, 2-(4-cyanophenoxy)-N-(4-(2-(dimethylamino)pyrimidin-5-yl)phenyl)-2-methylpropanamide]: the pEC50 was 5.30 to 6.00. As to `COCc1ccc(-c2ccc(N(C)C(=O)C(C)(C)Oc3ccc(F)cc3)cc2)c(F)c1` [Example 115, N-(2′-fluoro-4-(methoxymethyl)-[1,1′-biphenyl]-4-yl)-2-(4-fluorophenoxy)-N,2-dimethylpropanamide], the negative logarithm of the EC50 (pEC50) is greater than 6.00.

For the compound `CCCN(C(=O)C(C)(C)Oc1ccc(F)cc1)c1ccc(-c2ccc(COC)cc2)cc1` [Example 22, 2-(4-fluorophenoxy)-N-(4′-(methoxymethyl)-[1,1′-biphenyl]-4-yl)-2-methyl-N-propylpropanamide], the pEC50 was 5.30 to 6.00.

On to `CC(C)Oc1ccc(-c2ccc(NC(=O)C3CC3c3ccccn3)cc2)cn1` (single isomer, unassigned) [Example 134, N-(4-(6-isopropoxypyridin-3-yl)phenyl)-2-(pyridin-2-yl)cyclopropane-1-carboxamide], for which the negative-log EC50 (pEC50) was less than 5.30. As for `CC(C)Cc1ccc(-c2ccc(NC(=O)C(C)(C)Oc3ccc(F)cc3)cc2)cc1` [Example 42, 2-(4-fluorophenoxy)-N-(4′-isobutyl-[1,1′-biphenyl]-4-yl)-2-methylpropanamide], the figure is less than 5.30.
